This passage reports inhibition results from ChEMBL document CHEMBL5442219.

Holding throughout (conditions): Compound concentration 10 µM
For assay [1], the target named is T1, Alpha-1B adrenergic receptor (Homo sapiens) (UniProt P35368).
T1 sequence (whole entry): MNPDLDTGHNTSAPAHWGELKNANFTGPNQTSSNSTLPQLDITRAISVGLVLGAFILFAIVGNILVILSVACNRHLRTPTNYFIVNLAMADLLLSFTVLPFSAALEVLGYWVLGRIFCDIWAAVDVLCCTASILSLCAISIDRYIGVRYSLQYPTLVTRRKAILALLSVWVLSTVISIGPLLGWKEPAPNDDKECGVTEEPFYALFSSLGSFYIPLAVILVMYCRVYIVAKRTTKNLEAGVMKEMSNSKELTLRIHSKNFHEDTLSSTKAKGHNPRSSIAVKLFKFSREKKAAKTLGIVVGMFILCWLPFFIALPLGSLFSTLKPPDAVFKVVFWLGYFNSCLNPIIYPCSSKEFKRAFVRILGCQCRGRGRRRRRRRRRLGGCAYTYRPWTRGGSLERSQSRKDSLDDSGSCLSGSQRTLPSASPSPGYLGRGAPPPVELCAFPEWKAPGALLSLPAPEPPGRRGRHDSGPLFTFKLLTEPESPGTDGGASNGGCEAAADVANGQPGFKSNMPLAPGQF
Description: PDSP Primary Binding target: ADRA1B - Compounds are tested at 10 uM concentration, plate are incubated at room temperature in the dark for 90 minutes. Reaction are stopped by vacuum filtration onto 0.3% polyethyleneimine soaked filter mats using Filtermate harvester. Scintilation cocktail is then melted onto microwave-dried filters on a hot plate and the radio activity is counted in Microbia counter.

Assay [2] addresses Kappa-type opioid receptor (Homo sapiens) (UniProt P41145).
Description: PDSP Primary Binding target: OPRK1 - Compounds are tested at 10 uM concentration, plate are incubated at room temperature in the dark for 90 minutes. Reaction are stopped by vacuum filtration onto 0.3% polyethyleneimine soaked filter mats using Filtermate harvester. Scintilation cocktail is then melted onto microwave-dried filters on a hot plate and the radio activity is counted in Microbia counter.
The target of assay [3] is T2, 5-hydroxytryptamine receptor 1A (Homo sapiens) (UniProt P08908).
T2 sequence (whole entry): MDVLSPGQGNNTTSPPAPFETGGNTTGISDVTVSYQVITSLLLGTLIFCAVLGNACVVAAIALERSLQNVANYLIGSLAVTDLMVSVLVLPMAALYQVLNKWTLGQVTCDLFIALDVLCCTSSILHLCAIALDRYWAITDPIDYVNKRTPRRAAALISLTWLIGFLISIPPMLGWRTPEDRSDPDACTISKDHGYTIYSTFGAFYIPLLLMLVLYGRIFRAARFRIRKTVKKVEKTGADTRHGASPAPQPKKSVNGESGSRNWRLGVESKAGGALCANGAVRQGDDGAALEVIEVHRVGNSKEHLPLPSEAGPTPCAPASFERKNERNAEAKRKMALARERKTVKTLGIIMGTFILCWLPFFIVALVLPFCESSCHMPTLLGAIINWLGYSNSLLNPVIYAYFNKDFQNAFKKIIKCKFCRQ
Description: PDSP Primary Binding target: HTR1A - Compounds are tested at 10 uM concentration, plate are incubated at room temperature in the dark for 90 minutes. Reaction are stopped by vacuum filtration onto 0.3% polyethyleneimine soaked filter mats using Filtermate harvester. Scintilation cocktail is then melted onto microwave-dried filters on a hot plate and the radio activity is counted in Microbia counter.

The target of assay [4] is Beta-2 adrenergic receptor (Homo sapiens) (UniProt P07550).
Chain of Beta-2 adrenergic receptor (Homo sapiens) (P07550 whole entry, looked up): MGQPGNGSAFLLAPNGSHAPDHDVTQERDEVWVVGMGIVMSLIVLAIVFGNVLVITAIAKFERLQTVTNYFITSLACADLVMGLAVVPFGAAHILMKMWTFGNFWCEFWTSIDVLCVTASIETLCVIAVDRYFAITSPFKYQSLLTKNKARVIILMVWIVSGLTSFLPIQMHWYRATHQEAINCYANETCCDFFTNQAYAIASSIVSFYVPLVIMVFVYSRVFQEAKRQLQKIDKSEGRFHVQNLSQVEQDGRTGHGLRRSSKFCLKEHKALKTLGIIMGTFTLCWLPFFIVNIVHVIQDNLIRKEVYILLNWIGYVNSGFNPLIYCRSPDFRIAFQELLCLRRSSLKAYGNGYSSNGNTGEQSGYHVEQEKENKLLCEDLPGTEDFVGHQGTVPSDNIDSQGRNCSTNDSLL
Description: PDSP Primary Binding target: ADRB2 - Compounds are tested at 10 uM concentration, plate are incubated at room temperature in the dark for 90 minutes. Reaction are stopped by vacuum filtration onto 0.3% polyethyleneimine soaked filter mats using Filtermate harvester. Scintilation cocktail is then melted onto microwave-dried filters on a hot plate and the radio activity is counted in Microbia counter.
The target of assay [5] is D(1B) dopamine receptor (Homo sapiens) (UniProt P21918).
Chain of D(1B) dopamine receptor (Homo sapiens) (P21918 whole entry): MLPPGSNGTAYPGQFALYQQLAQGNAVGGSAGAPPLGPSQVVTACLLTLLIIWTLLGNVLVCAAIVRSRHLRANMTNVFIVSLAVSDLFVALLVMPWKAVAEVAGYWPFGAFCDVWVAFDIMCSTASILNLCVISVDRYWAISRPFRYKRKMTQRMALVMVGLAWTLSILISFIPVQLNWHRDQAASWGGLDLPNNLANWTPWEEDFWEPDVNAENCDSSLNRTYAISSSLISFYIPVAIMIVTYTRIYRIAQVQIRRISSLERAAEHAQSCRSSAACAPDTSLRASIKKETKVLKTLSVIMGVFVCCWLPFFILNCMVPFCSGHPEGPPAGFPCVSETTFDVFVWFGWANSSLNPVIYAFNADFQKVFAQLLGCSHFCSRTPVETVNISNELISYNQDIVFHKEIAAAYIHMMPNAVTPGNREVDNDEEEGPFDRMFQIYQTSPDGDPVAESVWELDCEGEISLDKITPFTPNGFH
Description: PDSP Primary Binding target: DRD5 - Compounds are tested at 10 uM concentration, plate are incubated at room temperature in the dark for 90 minutes. Reaction are stopped by vacuum filtration onto 0.3% polyethyleneimine soaked filter mats using Filtermate harvester. Scintilation cocktail is then melted onto microwave-dried filters on a hot plate and the radio activity is counted in Microbia counter.
For assay [6], the target named is 5-hydroxytryptamine receptor 2A (Homo sapiens) (UniProt P28223).
Chain of 5-hydroxytryptamine receptor 2A (Homo sapiens) (P28223 whole entry): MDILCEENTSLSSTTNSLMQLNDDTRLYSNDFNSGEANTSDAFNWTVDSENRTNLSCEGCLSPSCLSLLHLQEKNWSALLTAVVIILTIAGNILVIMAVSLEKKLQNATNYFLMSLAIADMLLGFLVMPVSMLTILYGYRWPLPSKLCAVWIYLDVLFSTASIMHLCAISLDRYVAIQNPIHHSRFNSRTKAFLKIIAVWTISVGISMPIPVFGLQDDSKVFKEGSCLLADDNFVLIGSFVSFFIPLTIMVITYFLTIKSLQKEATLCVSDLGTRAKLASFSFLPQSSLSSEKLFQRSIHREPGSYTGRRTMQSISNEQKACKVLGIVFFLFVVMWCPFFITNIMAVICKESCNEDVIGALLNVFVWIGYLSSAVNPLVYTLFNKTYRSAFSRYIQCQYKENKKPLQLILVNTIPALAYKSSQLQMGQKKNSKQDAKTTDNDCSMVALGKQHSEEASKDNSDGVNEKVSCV
Description: PDSP Primary Binding target: HTR2A - Compounds are tested at 10 uM concentration, plate are incubated at room temperature in the dark for 90 minutes. Reaction are stopped by vacuum filtration onto 0.3% polyethyleneimine soaked filter mats using Filtermate harvester. Scintilation cocktail is then melted onto microwave-dried filters on a hot plate and the radio activity is counted in Microbia counter.
Assay [7] has as its target Histamine H3 receptor (Homo sapiens) (UniProt Q9Y5N1).
Description: PDSP Primary Binding target: HRH3 - Compounds are tested at 10 uM concentration, plate are incubated at room temperature in the dark for 90 minutes. Reaction are stopped by vacuum filtration onto 0.3% polyethyleneimine soaked filter mats using Filtermate harvester. Scintilation cocktail is then melted onto microwave-dried filters on a hot plate and the radio activity is counted in Microbia counter.
In assay [8] the target is D(3) dopamine receptor (Homo sapiens) (UniProt P35462).
Chain of D(3) dopamine receptor (Homo sapiens) (P35462 whole entry): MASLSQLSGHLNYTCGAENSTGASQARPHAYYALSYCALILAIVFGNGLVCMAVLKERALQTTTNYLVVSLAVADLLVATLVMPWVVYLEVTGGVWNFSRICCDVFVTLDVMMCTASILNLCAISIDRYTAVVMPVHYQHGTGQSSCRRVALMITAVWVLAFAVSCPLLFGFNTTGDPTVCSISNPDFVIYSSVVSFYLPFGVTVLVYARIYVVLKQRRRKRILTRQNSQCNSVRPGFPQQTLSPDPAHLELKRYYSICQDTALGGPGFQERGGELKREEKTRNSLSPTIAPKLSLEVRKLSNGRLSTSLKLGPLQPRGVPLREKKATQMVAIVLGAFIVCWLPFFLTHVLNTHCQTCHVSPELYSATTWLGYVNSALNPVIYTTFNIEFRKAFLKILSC
Description: PDSP Primary Binding target: DRD3 - Compounds are tested at 10 uM concentration, plate are incubated at room temperature in the dark for 90 minutes. Reaction are stopped by vacuum filtration onto 0.3% polyethyleneimine soaked filter mats using Filtermate harvester. Scintilation cocktail is then melted onto microwave-dried filters on a hot plate and the radio activity is counted in Microbia counter.
Assay [9] deals with T3, Alpha-1D adrenergic receptor (Homo sapiens) (UniProt P25100).
T3 sequence (whole entry): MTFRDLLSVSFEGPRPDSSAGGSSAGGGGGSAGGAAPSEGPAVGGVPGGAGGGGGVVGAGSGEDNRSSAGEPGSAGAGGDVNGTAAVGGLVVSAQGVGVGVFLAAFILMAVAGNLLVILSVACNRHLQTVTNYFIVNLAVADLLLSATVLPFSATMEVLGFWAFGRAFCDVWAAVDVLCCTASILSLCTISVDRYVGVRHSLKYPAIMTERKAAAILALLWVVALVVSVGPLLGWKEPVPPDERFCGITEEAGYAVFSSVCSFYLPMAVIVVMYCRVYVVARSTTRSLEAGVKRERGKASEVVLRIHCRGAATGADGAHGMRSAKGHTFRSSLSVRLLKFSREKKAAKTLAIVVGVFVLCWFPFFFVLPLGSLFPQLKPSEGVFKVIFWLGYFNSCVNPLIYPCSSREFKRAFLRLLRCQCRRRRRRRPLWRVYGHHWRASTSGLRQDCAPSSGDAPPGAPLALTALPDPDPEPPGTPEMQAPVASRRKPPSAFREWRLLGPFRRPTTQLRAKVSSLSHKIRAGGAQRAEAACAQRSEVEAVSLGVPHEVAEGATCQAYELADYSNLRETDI
Description: PDSP Primary Binding target: ADRA1D - Compounds are tested at 10 uM concentration, plate are incubated at room temperature in the dark for 90 minutes. Reaction are stopped by vacuum filtration onto 0.3% polyethyleneimine soaked filter mats using Filtermate harvester. Scintilation cocktail is then melted onto microwave-dried filters on a hot plate and the radio activity is counted in Microbia counter.

Assay [10] addresses T4, D(4) dopamine receptor (Homo sapiens) (UniProt P21917).
T4 sequence (whole entry): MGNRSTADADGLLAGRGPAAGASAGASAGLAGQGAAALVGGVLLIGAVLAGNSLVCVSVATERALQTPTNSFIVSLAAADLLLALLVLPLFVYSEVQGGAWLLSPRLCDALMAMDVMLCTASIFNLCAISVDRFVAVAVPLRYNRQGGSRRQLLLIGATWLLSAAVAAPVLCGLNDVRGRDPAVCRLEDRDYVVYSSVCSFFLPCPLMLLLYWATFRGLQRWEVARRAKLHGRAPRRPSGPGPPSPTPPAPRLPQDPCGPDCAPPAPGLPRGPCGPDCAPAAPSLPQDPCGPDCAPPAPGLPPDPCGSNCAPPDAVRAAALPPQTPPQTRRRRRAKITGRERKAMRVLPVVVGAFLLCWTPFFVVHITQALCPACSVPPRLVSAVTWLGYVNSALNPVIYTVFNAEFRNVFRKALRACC
Description: PDSP Primary Binding target: DRD4 - Compounds are tested at 10 uM concentration, plate are incubated at room temperature in the dark for 90 minutes. Reaction are stopped by vacuum filtration onto 0.3% polyethyleneimine soaked filter mats using Filtermate harvester. Scintilation cocktail is then melted onto microwave-dried filters on a hot plate and the radio activity is counted in Microbia counter.

Assay [11] addresses T5, Muscarinic acetylcholine receptor M4 (Homo sapiens) (UniProt P08173).
T5 sequence (whole entry): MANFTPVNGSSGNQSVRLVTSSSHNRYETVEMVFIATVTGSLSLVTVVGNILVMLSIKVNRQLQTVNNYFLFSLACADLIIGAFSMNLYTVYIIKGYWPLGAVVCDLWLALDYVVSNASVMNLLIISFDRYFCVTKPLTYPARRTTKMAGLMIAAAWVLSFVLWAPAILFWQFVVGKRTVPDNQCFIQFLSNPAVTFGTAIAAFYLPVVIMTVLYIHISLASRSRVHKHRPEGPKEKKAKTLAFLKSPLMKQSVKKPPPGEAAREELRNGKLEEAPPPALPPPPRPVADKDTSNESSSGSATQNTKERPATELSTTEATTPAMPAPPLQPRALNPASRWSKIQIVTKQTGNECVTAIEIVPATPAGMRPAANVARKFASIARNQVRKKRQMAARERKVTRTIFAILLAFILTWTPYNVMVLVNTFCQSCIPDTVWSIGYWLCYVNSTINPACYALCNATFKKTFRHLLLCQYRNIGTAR
Description: PDSP Primary Binding target: CHRM4 - Compounds are tested at 10 uM concentration, plate are incubated at room temperature in the dark for 90 minutes. Reaction are stopped by vacuum filtration onto 0.3% polyethyleneimine soaked filter mats using Filtermate harvester. Scintilation cocktail is then melted onto microwave-dried filters on a hot plate and the radio activity is counted in Microbia counter.

In assay [12] the target is 5-hydroxytryptamine receptor 1B (Homo sapiens) (UniProt P28222).
Chain of 5-hydroxytryptamine receptor 1B (Homo sapiens) (P28222 whole entry): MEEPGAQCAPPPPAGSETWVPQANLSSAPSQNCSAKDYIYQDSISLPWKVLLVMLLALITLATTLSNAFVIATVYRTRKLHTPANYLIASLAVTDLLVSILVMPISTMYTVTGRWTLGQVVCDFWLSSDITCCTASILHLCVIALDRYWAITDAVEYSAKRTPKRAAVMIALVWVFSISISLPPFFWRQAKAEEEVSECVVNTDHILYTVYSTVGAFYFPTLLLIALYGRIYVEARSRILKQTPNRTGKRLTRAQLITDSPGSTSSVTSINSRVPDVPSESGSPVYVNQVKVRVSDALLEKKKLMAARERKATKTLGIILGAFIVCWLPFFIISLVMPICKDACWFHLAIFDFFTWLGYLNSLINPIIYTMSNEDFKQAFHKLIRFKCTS
Description: PDSP Primary Binding target: HTR1B - Compounds are tested at 10 uM concentration, plate are incubated at room temperature in the dark for 90 minutes. Reaction are stopped by vacuum filtration onto 0.3% polyethyleneimine soaked filter mats using Filtermate harvester. Scintilation cocktail is then melted onto microwave-dried filters on a hot plate and the radio activity is counted in Microbia counter.

Chain of Kappa-type opioid receptor (Homo sapiens) (P41145 whole entry): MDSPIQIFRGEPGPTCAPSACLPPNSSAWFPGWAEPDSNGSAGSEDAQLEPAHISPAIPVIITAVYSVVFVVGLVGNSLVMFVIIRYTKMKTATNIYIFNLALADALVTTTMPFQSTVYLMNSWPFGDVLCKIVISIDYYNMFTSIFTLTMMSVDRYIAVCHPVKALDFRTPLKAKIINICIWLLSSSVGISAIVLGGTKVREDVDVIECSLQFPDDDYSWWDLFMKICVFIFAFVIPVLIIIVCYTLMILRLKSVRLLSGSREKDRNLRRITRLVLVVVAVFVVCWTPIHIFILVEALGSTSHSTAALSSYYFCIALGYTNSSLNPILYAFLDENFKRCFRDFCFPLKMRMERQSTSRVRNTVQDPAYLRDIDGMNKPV
Chain of Histamine H3 receptor (Homo sapiens) (Q9Y5N1 whole entry): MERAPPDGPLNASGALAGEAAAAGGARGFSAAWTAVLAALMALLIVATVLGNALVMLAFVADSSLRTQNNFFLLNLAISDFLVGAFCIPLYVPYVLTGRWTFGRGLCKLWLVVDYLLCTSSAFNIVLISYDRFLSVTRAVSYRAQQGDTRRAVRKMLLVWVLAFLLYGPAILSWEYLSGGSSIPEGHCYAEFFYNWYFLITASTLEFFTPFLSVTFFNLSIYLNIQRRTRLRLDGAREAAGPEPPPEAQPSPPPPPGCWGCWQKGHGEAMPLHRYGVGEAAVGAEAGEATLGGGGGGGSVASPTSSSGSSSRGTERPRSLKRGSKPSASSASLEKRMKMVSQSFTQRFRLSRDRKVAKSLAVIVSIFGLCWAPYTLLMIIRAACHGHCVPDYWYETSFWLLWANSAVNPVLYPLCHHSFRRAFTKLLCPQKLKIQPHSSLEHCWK

One may read the inhibition as the relative decrease from the control value, in per cent. Turning to `O=C(O)CC/C=C\C[C@@H]1CO[C@H](c2ccccc2Cl)O[C@@H]1c1ccccc1O`, the inhibition in assay [1] was -9.67%; in assay [2], 5.7%; in [3], 16.9%; in [4], -6.03%; in assay [5] it was -4.01%; in assay [6] it was 3.61%. For the same compound, the inhibition is 6.14% in assay [7] and 40% in assay [8].
Regarding `N#Cc1c(N)nc(SCC(N)=O)c(C#N)c1-c1ccc(OCC2CC2)cc1`, the inhibition was -6.52% in assay [1]; 89% in [2]; 2.75% in assay [3]; 0.73% in assay [9]; 28.7% in assay [6]; 8.04% in assay [10]. Moreover, the inhibition in [7] is -3.51%; in [11] it was 34.5%; in [8] it was -6.34%.
For `CCc1cc2c(c(CC)n1)CCC(=O)N2Cc1ccc(-c2ccccc2-c2nnn[nH]2)cc1`, the inhibition in assay [1] is 25.9%; in assay [2] it was 3.59%; in assay [3], -4.87%; in assay [4] it was -4.26%; in assay [12] it was 11.5%; in assay [6], 29.2%. Moreover, the inhibition was 70% in assay [10], -4.36% in assay [11] and 87.1% in assay [8].
With `O=C(Nc1ccc(Cl)cc1)Nc1cccc(-c2cccc(N3CCCC3)n2)c1`, the inhibition in [2] is 7.04%; in assay [3], 28.2%; in [9], 0.2%; in assay [6], 11%; in assay [10] it was 5.64%; in assay [11], 18.8%. In addition, the inhibition in assay [8] is 48.5%.
Regarding `Cc1cc(NC(=O)Nc2ccc(N(C)C)cc2)c2cc(F)cc(F)c2n1`, the inhibition in assay [1] was 14%; in assay [2], 22.3%; in assay [9], 6.71%; in assay [4] it was 16.5%; in assay [6] it was 13%; in assay [10], 25.9%. Moreover, the inhibition in [7] was 28.6%; in assay [11], 2.31%; in assay [8] it was 34.5%.
For `Cc1nc(C(=O)N2CCC[C@H]2Cc2nnc(-c3ccccc3)o2)c(-c2ccccc2F)s1`, the inhibition is 9.45% in assay [1]; 57.7% in assay [2]; 3.86% in assay [3]; 26.4% in assay [9]; -2.08% in assay [4]; 8.26% in assay [6]. Moreover, the inhibition in assay [10] is -5.22%; in assay [7], 22.7%; in [11] it was 39.1%; in assay [8], 45%.
As to `CC(C)NCC(O)c1ccc(N)c(C#N)c1` (stereo unspecified), the inhibition was -5.56% in assay [1]; 9.69% in assay [2]; 37.6% in assay [3]; 95.5% in assay [4]; 9.46% in assay [6]; -4.2% in assay [10]. In addition, the inhibition in assay [7] is 3.66%; in assay [8], -2.07%.
On to `CCCCC#Cc1nc(NC)c2ncn([C@@H]3O[C@H](CO)[C@@H](O)[C@H]3O)c2n1`, for which the inhibition was 8.1% in [1]; 8.14% in [2]; 3.96% in assay [3]; -1.99% in assay [9]; -7.26% in assay [12]; 92.5% in assay [6]. In addition, the inhibition is -8.18% in [10], 7.95% in [7], 0.76% in assay [11] and 32.7% in assay [8].
Regarding `C=CCN1C[C@H](C)N([C@H](c2ccc(C(=O)N(CC)CC)cc2)c2cccc(O)c2)C[C@H]1C`, the inhibition in assay [1] was 10.2%; in assay [2], 99.8%; in [4], 3.05%; in assay [12], 27.1%; in assay [6], 2.09%; in [7], 0.95%. The inhibition in assay [11] was -5.52%; in assay [8] it was 6.85%.
For `Cc1cc(C)cc(C(=O)N(C)[C@H](Cc2ccc(-c3ccccc3)cc2)C(=O)N[C@@H](Cc2c[nH]c3ccccc23)C(=O)O)c1`, the inhibition in assay [1] is 1.27%; in assay [2], 46.1%; in assay [3], 15.9%; in assay [9] it was 7.51%; in assay [4], 3.37%; in assay [6], 31.2%. For the same compound, the inhibition in assay [10] is 11.8%; in assay [11], 1%; in assay [8] it was 3.03%.
Consider `COc1cc2c(CCNC(C)=O)c[nH]c2cc1Cl`, for which the inhibition was -6.29% in [2]; -4.64% in [3]; 6.2% in [9]; 3.89% in [4]; 25.2% in assay [12]; -6.6% in assay [6]. For the same compound, the inhibition in assay [10] was -6.09%.
For `C[C@@H](N)Cc1c[nH]cn1`, the inhibition in [2] was -2.45%; in assay [3], -9.3%; in assay [4], 10.2%; in assay [5], 24.8%; in assay [12], 5.1%; in [6], -2.41%. Moreover, the values for the inhibition in assay [7] and in assay [8] were 103% and 8.41%, respectively.
`O=C(Cc1ccccc1)Nc1nc2ccc(Cl)cc2c2nc(-c3ccco3)nn12`: the inhibition in assay [1] is -7.34%; in [2] it was 12.4%; in assay [3], -8.72%; in [9] it was -5.53%; in assay [4], 2.33%; in assay [6], 16.8%. Further, the inhibition was 33.2% in assay [10], -5.46% in assay [11] and 30.2% in assay [8].
